The results in this text go back to patent US20250215012A1, “IKZF2 DEGRADERS AND USES THEREOF” (REGENTS OF THE UNIVERSITY OF MICHIGAN, priority 2022, published 2025).

SMILES strings stand for the structures.

Holding throughout (format): cell-based
Assay [1] has as its target T1, IKZF2 (Homo sapiens (Human), UniProt Q96SW2+Q9UKS7). As to the kind of experiment: IKZF2 HiBit Assay (HEK293T Flp-in-HiBiT cells). Conditions: HEK293T Flp-in-HiBiT cells, 6 hrs; for DC50: read-out: IKZF2 HiBit degradation DC50; for Dmax: HEK-293T, read-out: IKZF2 HiBit degradation Dmax. The method, then: The HiBiT protein tagging system was applied to modified HEK293T Flp-in-HiBiT cells (polyclone) via a CRISPR/Cas9—mediated insertion of the HiBiT peptide tag (Promega™) to the N-terminus of the IKZF2 gene locus (Neon™ transfection system). Test and reference compounds are diluted from 1 mM at 3 folds for 11 doses. 25 nL of diluted compound is transferred to assay plates (Corning3570) using ECHO550, the final DMSO concentration @0.1%. The cells are seeded in 3000/[…]/well to compound plates. It is then incubated for 6 hrs in TC incubator. The amount of Nano-Glo® HiBiT lytic reagent needed to perform the desired experiments is calculated. The Nano-Glo® HiBiT lytic reagent is brought to room temperature. The LgBiT protein is diluted to 1:100 and the Nano-Glo® HiBiT lytic substrate is diluted to 1:50 into an appropriate volume of room temperature Nano-Glo® HiBiT lytic buffer. […] of the detection reagent (or without LgBiT) is dispensed to corresponding well according to the layout. The plate is then shaked for 10 mins at room temperature. After briefly centrifuge, the plate is read on Envision. At the indicated timepoints, the Nano-Glo® HiBiT lytic detection system (Promega™) was utilized for detecting bioluminescence of the HiBiT tag in treated cells: abundance of the tag is proportionate to the level of luminescence. Following normalization to DMSO, dose-response curves were plotted (GraphPad Prism) to determine the concentration points at which 50% of HiBiT-Helios degradation was achieved by each compound. The extent of degradation (range of luminescence) from the highest to lowest concentration points was calculated to determine the Dmax.
On the technique in general: HiBiT is a short tag that completes a luciferase, so light tracks the accessible tagged protein.

The target in a further assay is IKZF1 (Homo sapiens (Human), UniProt Q13422+Q96SW2). As to the kind of experiment: IKZF1 HiBit Assay (HEK293T Flp-in-HiBiT-IKZF1 stable cell line). The settings on record: HEK293T Flp-in-HiBiT-IKZF1 cells, 6 hrs; for DC50: read-out: IKZF1 HiBit degradation DC50; for Dmax: HEK-293T, read-out: IKZF1 HiBit degradation Dmax. Here is the method:
The HiBiT protein tagging system was applied to modified Cells: modified HEK293T Flp-in-HiBiT-IKZF1 stable cell line (polyclone) via a CRISPR/Cas9—mediated insertion of the HiBiT peptide tag (Promega™) to the N-terminus of the IKZF2 gene locus (Neon™ transfection system).
Test compound from 10 mM and reference compound (CC-92480 from 50 mM and I-57 from 10 mM) are diluted at 3 folds for 11 doses. 25 nL of diluted compound is transferred to assay plates (Corning3571) using ECHO550, the final DMSO concentration @0.1%. The cells are seeded in 3000/[…]/well to compound plates. The plates are incubated for 6 hrs in TC incubator. The amount of Nano-Glo® HiBiT lytic reagent needed to perform the desired experiments is calculated. The Nano-Glo® HiBiT lytic reagent is brought to room temperature. The LgBiT protein is diluted to 1:100 and the Nano-Glo® HiBiT lytic substrate is brought to 1:50 into an appropriate volume of room temperature Nano-Glo® HiBiT lytic buffer. […] of the detection reagent (or without LgBiT) is dispensed to corresponding well according to the layout. The plate is shaked for 10 mins at room temperature. After briefly centrifuging, the plate is read on Envision. At the indicated timepoints, the Nano-Glo® HiBiT lytic detection system (Promega™) was utilized for detecting bioluminescence of the HiBiT tag in treated cells: abundance of the tag is proportionate to the level of luminescence. Following normalization to DMSO, dose-response curves were plotted (GraphPad Prism) to determine the concentration points at which 50% of HiBiT-Ikaros degradation was achieved by each compound. The extent of degradation (range of luminescence) from the highest to lowest concentration points was calculated to determine the Dm.

Assay [2] addresses T1, IKZF2. As to the kind of experiment: IKZF2 HiBiT Assay (Jurkat-IKZF2-HiBiT cell line). The settings on record: Jurkat-IKZF2-HiBiT cells, 24 hours; for DC50: read-out: HiBit assay degradation analysis DC50; for Dmax: read-out: HiBit assay degradation analysis Dmax. Summed up: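 Jurkat cells carrying HiBiT-tagged IKZF2 were exposed to serially diluted compound for 24 h at 37 °C. Remaining IKZF2 was measured by Nano-Glo HiBiT lytic luminescence after 10-20 min at room temperature. Signal was normalized to DMSO, and IC50 came from a four-parameter variable-slope fit.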

T1 sequence (Q9UKS7 whole entry): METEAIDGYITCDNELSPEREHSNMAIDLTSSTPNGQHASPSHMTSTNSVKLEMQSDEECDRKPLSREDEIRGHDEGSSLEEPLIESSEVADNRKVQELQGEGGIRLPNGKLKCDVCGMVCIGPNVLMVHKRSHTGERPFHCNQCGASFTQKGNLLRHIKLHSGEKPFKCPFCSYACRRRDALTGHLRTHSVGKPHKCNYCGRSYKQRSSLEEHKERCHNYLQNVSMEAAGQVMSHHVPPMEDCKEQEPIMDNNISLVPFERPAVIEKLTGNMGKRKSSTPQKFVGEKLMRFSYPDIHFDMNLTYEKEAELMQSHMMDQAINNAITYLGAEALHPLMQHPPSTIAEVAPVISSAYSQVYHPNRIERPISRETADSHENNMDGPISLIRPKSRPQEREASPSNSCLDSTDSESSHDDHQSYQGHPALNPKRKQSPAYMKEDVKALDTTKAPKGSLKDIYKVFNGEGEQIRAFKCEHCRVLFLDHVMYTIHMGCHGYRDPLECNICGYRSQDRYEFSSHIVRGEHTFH
T1 sequence (Q96SW2 whole entry): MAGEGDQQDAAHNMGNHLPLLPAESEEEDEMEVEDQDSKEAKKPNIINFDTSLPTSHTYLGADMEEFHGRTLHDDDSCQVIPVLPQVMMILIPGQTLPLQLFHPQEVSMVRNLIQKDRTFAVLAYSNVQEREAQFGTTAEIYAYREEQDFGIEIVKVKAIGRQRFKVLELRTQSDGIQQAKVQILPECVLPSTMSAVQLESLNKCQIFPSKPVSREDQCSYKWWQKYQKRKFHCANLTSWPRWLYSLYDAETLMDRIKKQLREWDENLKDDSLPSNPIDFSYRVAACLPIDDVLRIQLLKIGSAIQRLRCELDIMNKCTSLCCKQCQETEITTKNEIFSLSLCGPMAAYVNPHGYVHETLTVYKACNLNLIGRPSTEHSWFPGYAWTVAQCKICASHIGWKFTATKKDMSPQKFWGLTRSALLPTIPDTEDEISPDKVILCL
T1 sequence (Q16531 whole entry partner): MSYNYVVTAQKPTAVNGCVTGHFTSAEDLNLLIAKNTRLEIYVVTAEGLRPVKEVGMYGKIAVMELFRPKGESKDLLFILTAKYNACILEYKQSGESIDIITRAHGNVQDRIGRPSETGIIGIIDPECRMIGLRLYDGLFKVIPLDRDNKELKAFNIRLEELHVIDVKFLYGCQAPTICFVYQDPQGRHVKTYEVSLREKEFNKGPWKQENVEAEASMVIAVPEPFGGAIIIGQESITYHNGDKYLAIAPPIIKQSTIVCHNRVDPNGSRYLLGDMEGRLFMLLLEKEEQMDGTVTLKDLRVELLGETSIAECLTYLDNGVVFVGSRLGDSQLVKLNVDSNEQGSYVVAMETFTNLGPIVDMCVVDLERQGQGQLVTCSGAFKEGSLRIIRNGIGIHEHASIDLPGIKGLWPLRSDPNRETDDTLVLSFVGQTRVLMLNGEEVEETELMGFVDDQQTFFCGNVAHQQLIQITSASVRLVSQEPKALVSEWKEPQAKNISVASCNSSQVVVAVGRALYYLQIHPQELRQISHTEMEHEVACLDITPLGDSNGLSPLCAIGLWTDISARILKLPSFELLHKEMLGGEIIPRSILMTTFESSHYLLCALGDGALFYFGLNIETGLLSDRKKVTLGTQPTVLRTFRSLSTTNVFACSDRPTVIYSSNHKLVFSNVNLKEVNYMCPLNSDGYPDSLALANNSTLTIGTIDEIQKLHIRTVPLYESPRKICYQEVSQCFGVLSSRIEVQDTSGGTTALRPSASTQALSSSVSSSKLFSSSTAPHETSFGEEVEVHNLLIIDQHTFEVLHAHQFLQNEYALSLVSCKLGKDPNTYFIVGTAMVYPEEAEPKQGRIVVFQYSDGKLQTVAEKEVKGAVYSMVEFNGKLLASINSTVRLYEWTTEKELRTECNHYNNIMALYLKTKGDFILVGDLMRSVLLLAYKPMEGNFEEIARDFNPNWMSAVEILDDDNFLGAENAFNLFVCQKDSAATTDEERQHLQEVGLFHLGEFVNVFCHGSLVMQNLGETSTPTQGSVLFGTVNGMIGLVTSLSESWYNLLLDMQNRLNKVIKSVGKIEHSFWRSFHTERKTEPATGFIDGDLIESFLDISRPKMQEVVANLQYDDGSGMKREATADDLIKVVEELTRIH
Sequence of IKZF1 (Q13422 whole entry): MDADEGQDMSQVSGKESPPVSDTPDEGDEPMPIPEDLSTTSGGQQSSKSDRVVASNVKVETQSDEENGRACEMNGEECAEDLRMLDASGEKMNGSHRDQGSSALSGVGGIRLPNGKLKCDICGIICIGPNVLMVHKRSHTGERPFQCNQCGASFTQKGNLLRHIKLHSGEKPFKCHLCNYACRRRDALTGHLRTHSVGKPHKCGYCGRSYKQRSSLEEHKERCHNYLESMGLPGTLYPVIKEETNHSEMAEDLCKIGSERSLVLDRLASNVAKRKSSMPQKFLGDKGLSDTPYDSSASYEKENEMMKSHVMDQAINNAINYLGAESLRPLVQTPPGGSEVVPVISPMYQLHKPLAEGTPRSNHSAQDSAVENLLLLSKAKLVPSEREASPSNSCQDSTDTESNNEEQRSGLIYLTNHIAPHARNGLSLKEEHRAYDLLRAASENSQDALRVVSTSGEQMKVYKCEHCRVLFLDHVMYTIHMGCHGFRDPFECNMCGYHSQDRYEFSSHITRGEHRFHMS
Sequence of IKZF1 (Q96SW2 whole entry): as the sequence (Q96SW2 whole entry) above
Sequence of IKZF1 (Q16531 whole entry partner): as the sequence (Q16531 whole entry partner) above

In the case of `Cn1cc(-c2cccc(CN3CCC4(CC3)CNc3c4ccc4c3CN([C@H]3CCC(=O)NC3=O)C4=O)c2)cn1` [Compound B57, (S)-3-(1-(3-(1-methyl-1H-pyrazol-4-yl)benzyl)-6′-oxo-1′,2′,6′,8′-tetrahydro-7′H-spiro[piperidine-4,3′-pyrrolo[3,4-g]indol]-7′-yl)piperidine-2,6-dione], at IKZF2 [1], the half-maximal degradation concentration (DC50) (commonly the concentration giving 50% degradation) was in the range of 10 to 100 nM and the Dmax (as a rule, the greatest extent of degradation seen) lay within 60 to 80%. For the same compound, on IKZF1, the DC50 was more than 1000 nM and the Dmax is less than 20%.

For the compound `O=C1CC[C@H](N2Cc3c(ccc4c3NCC43CCN(Cc4ccccc4)CC3)C2=O)C(=O)N1` [Compound B56, (S)-3-(1-benzyl-6′-oxo-1′,2′,6′,8′-tetrahydro-7′H-spiro[piperidine-4,3′-pyrrolo[3,4-g]indol]-7′-yl)piperidine-2,6-dione], the 50% degradation concentration (DC50) is 10 to 100 nM at IKZF2 [1] and more than 1000 nM on IKZF1. For the same compound, the greatest degradation seen (Dmax) on IKZF2 [1] was 40 to 60%; on IKZF1 it was less than 20%.

Regarding `N#Cc1ccc(-n2cc(CN3CCC4(CC3)CNc3c4ccc4c3CN([C@H]3CCC(=O)NC3=O)C4=O)cn2)cc1` [Compound B58, (S)-4-(4-((7′-(2,6-dioxopiperidin-3-yl)-6′-oxo-1′,6′,7′,8′-tetrahydro-2′H-spiro[piperidine-4,3′-pyrrolo[3,4-g]indol]-1-yl)methyl)-1H-pyrazol-1-yl)benzonitrile], at IKZF2 [1], the DC50 lay within 1 to 10 nM and the Dmax was in the range of 40 to 60%. In addition, on IKZF1, the DC50 is more than 1000 nM and the Dmax was less than 20%.

Regarding `O=C1CC[C@H](N2Cc3c(ccc4c3OCC43CCN(Cc4cnn(CC5CCOCC5)c4)CC3)C2=O)C(=O)N1` [Compound B6, (S)-3-(6-oxo-1′-((1-((tetrahydro-2H-pyran-4-yl)methyl)-1H-pyrazol-4-yl)methyl)-6,8-dihydro-2H,7H-spiro[furo[2,3-e]isoindole-3,4′-piperidin]-7-yl)piperidine-2,6-dione], at IKZF2 [1], the DC50 was in the range of 1 to 10 nM and the Dmax lay within 60 to 80%. Besides, at IKZF1, the DC50 is more than 1000 nM and the Dmax is less than 20%.

Take `O=C1CCC(N2Cc3c(ccc4c3OCC43CCN(CC4CCCC(c5ccccc5)C4)CC3)C2=O)C(=O)N1` (centres unmarked) [Compound A181, 3-(6-oxo-1′-((3-phenylcyclohexyl)methyl)-6,8-dihydro-2H,7H-spiro[furo[2,3-e]isoindole-3,4′-piperidin]-7-yl)piperidine-2,6-dione]: at IKZF2 [2], the DC50 fell in the range of 200 to 500 nM and the Dmax was 40 to 60%.

`O=C1CC[C@H](N2Cc3c(ccc4c3OCC43CCN(Cc4cccc(-c5cnn(C[C@H]6CCO6)c5)c4)CC3)C2=O)C(=O)N1` [Compound A273, (S)-3-(1′-(3-(1-(((R)-oxetan-2-yl)methyl)-1H-pyrazol-4-yl)benzyl)-6-oxo-6,8-dihydro-2H,7H-spiro[furo[2,3-e]isoindole-3,4′-piperidin]-7-yl)piperidine-2,6-dione]: on IKZF2 [2], the DC50 lay in the range of 50 to 200 nM and the Dmax is 60 to 80%.

As to `COc1ccc(C(=O)Nc2cccc(CN3CCC4(CC3)COc3c4ccc4c3CN(C3CCC(=O)NC3=O)C4=O)c2)cc1` (centres unmarked) [Compound A177, N-(3-((7-(2,6-dioxopiperidin-3-yl)-6-oxo-7,8-dihydro-2H,6H-spiro[furo[2,3-e]isoindole-3,4′-piperidin]-1′-yl)methyl)phenyl)-4-methoxybenzamide], on IKZF2 [2], the DC50 is less than 50 nM and the Dmax was more than 80%.

`O=C1CCC(N2Cc3c(ccc4c3OCC43CCN(Cc4cnn(Cc5ccc(Cl)cc5)c4)CC3)C2=O)C(=O)N1` (centres unmarked) [Compound A241, 3-(1′-((1-(4-chlorobenzyl)-1H-pyrazol-4-yl)methyl)-6-oxo-6,8-dihydro-2H,7H-spiro[furo[2,3-e]isoindole-3,4′-piperidin]-7-yl)piperidine-2,6-dione]: at IKZF2 [2], the 50% degradation concentration (DC50) is less than 50 nM and the Dmax lay in the range of 60 to 80%.

Consider `Cn1ccc2c(CN3CCC4(CC3)COc3c4ccc4c3CN(C3CCC(=O)NC3=O)C4=O)cccc21` (centres unmarked) [Compound A109, 3-(1′-((1-methyl-1H-indol-4-yl)methyl)-6-oxo-6,8-dihydro-2H,7H-spiro[furo[2,3-e]isoindole-3,4′-piperidin]-7-yl)piperidine-2,6-dione], for which, on IKZF2 [2], the DC50 was less than 50 nM and the Dmax is 60 to 80%.

For the compound `O=C1CCC(N2Cc3c(ccc4c3OCC43CCN(Cc4cccc(Cn5ccnc5)c4)CC3)C2=O)C(=O)N1` (centres unmarked) [Compound A139, 3-(1′-(3-((1H-imidazol-1-yl)methyl)benzyl)-6-oxo-6,8-dihydro-2H,7H-spiro[furo[2,3-e]isoindole-3,4′-piperidin]-7-yl)piperidine-2,6-dione], on IKZF2 [2], the DC50 fell in the range of 200 to 500 nM and the greatest degradation seen (Dmax) lay within 60 to 80%.

As to `O=C1CCC(N2Cc3c(ccc4c3OCC43CCN(Cc4cccc5c4CCCO5)CC3)C2=O)C(=O)N1` (centres unmarked) [Compound A218, 3-(1′-(chroman-5-ylmethyl)-6-oxo-6,8-dihydro-2H,7H-spiro[furo[2,3-e]isoindole-3,4′-piperidin]-7-yl)piperidine-2,6-dione], on IKZF2 [2], the DC50 was less than 50 nM and the maximal degradation (Dmax) was 60 to 80%.

`O=C1CCC(N2Cc3c(ccc4c3OCC43CCN(Cc4ccc5c(c4)OC(F)(F)O5)CC3)C2=O)C(=O)N1` (centres unmarked) [Compound A193, 3-(1′-((2,2-difluorobenzo[d][1,3]dioxol-5-yl)methyl)-6-oxo-6,8-dihydro-2H,7H-spiro[furo[2,3-e]isoindole-3,4′-piperidin]-7-yl)piperidine-2,6-dione]: at IKZF2 [2], the DC50 was more than 500 nM and the Dmax was less than 40%.

With `O=C1CC[C@H](N2Cc3c(ccc4c3OCC43CCN(Cc4cccc(-c5ccn(C(F)F)n5)c4)CC3)C2=O)C(=O)N1` [Compound A289, (S)-3-(1′-(3-(1-(difluoromethyl)-1H-pyrazol-3-yl)benzyl)-6-oxo-6,8-dihydro-2H,7H-spiro[furo[2,3-e]isoindole-3,4′-piperidin]-7-yl)piperidine-2,6-dione], at IKZF2 [2], the DC50 is less than 50 nM and the greatest degradation seen (Dmax) fell in the range of 60 to 80%.

Consider `O=C1CCC(N2Cc3c(ccc4c3OCC43CCN(Cc4ncn(-c5ccccc5)n4)CC3)C2=O)C(=O)N1` (centres unmarked) [Compound A335, 3-(6-oxo-1′-((1-phenyl-1H-1,2,4-triazol-3-yl)methyl)-6,8-dihydro-2H,7H-spiro[furo[2,3-e]isoindole-3,4′-piperidin]-7-yl)piperidine-2,6-dione], for which, at IKZF2 [2], the 50% degradation concentration (DC50) is more than 500 nM and the maximal degradation (Dmax) is less than 40%.

On to `O=C1CCC(N2Cc3c(ccc4c3OCC43CCN(Cc4cnn(S(=O)(=O)c5ccccc5)c4)CC3)C2=O)C(=O)N1` (centres unmarked) [Compound A336, 3-(6-oxo-1′-((1-(phenylsulfonyl)-1H-pyrazol-4-yl)methyl)-6,8-dihydro-2H,7H-spiro[furo[2,3-e]isoindole-3,4′-piperidin]-7-yl)piperidine-2,6-dione], for which, at IKZF2 [2], the half-maximal degradation concentration (DC50) is more than 500 nM and the Dmax was 40 to 60%.
